Each block holds one compound with its values, some of them ahead of it.
Key:
[1] = Cytotoxicity against human MKN45 cells after 72 hrs by MTT assay; settings: MKN-45, 72 h
A549 = test: Cytotoxicity against human A549 cells after 72 hrs by MTT assay; type: functional, cell-based; settings: A549, 72 h
MDA-MB-231 = test: Cytotoxicity against human MDA-MB-231 cells after 72 hrs by MTT assay; type: functional, cell-based; settings: MDA-MB-231, 72 h
HT-29 [2] = test: Cytotoxicity against human HT-29 cells after 72 hrs by MTT assay; settings: HT-29, 72 h
PBL = test: Cytotoxicity against human PBL cells after 72 hrs by MTT assay; type: cell-based
Mus musculus [3] = test: AUC (0 to infinity) in mouse at 20 mg/kg, iv or 35 mg/kg, po administered as single dose by LC/MS/MS analysis; type: ADME, organism-based; settings: in vivo
Mus musculus [4] = test: Cmax in mouse at 35 mg/kg, po administered as single dose measured at 0.25 to 24 hrs by LC/MS/MS analysis; type: ADME, organism-based; parameters: dose 35 mg/kg, route oral; settings: in vivo
[5] = Mean residence time (0 to infinity) in mouse at 20 mg/kg, iv or 35 mg/kg, po administered as single dose by LC/MS/MS analysis; type: ADME, organism-based; settings: in vivo
Mus musculus [6] = test: Half life in mouse at 20 mg/kg, iv or 35 mg/kg, po administered as single dose by LC/MS/MS analysis; type: ADME, organism-based; settings: in vivo
[7] = Apparent volume of distribution during terminal phase in mouse at 35 mg/kg, po administered as single dose measured at 0.25 to 24 hrs by LC/MS/MS analysis; type: ADME, organism-based; settings: in vivo, read-out: Vz/F
Mus musculus [8] = test: Tmax in mouse at 35 mg/kg, po administered as single dose by LC/MS/MS analysis; type: ADME, organism-based; settings: in vivo
HT-29 [9] = test: Antitumor activity against human HT-29 cells xenografted in Balb/c mouse assessed as tumor growth inhibition at 50 mg/kg, po bid for 27 days relative to control; type: functional; parameters: scale not given: the % may be the effect or the level left
Mus musculus [10] = test: Toxicity in Balb/c mouse xenografted with human HT-29 cells assessed as change in body weight at 50 mg/kg, po bid for 27 days; type: organism-based; settings: in vivo, 648 h
[11] = Antitumor activity against human MKN45 cells xenografted in Balb/c mouse assessed as tumor growth inhibition at 50 mg/kg, po bid for 24 days relative to control; type: functional, MKN-45; parameters: scale not given: the % may be the effect or the level left
Mus musculus [12] = test: Toxicity in Balb/c mouse xenografted with human MKN45 cells assessed as change in body weight at 50 mg/kg, po bid for 24 days; type: organism-based, MKN-45; settings: in vivo, 576 h

SMILES: COc1cc2c(Oc3ccc(NC(=O)N/N=C/c4ccncc4)cc3F)ccnc2cc1OCCCN1CCCCC1
- IC50 [1]: 980 nM
- IC50 (A549): 840 nM
- IC50 (MDA-MB-231): 1400 nM
- IC50 (HT-29 [2]): 940 nM

SMILES: COc1ccc(/C=N/NC(=O)Nc2ccc(Oc3ccnc4cc(OCCCN5CCCC5)c(OC)cc34)c(F)c2)cc1
- IC50 [1]: 750 nM
- IC50 (A549): 680 nM
- IC50 (PBL): 26500 nM
- IC50 (MDA-MB-231): 1300 nM
- IC50 (HT-29 [2]): 690 nM

SMILES: COc1cc2c(Oc3ccc(NC(=S)N/N=C/c4ccc(Cl)cc4)cc3F)ccnc2cc1OCCCN1CCCCC1
- IC50 [1]: 500 nM
- IC50 (MDA-MB-231): 1300 nM
- IC50 (HT-29 [2]): 190 nM

SMILES: COc1cc2c(Oc3ccc(NC(=O)N/N=C/c4ccc(C(F)(F)F)cc4)cc3F)ccnc2cc1OCCCN1CCCC1
- IC50 [1]: 1300 nM
- IC50 (A549): 790 nM
- IC50 (MDA-MB-231): 1800 nM
- IC50 (HT-29 [2]): 810 nM

SMILES: COc1cc2c(Oc3ccc(/C=N/NC(=O)Nc4ccc(Br)cc4)cc3F)ccnc2cc1OCCCN1CCCCC1
- IC50 [1]: 60 nM
- IC50 (MDA-MB-231): 800 nM
- IC50 (HT-29 [2]): 270 nM

SMILES: COc1cc2c(Oc3ccc(NC(=O)N/N=C/c4ccc(Cl)cc4Cl)cc3F)ccnc2cc1OCCCN1CCC(C)CC1
- IC50 [1]: 350 nM
- IC50 (MDA-MB-231): 910 nM
- IC50 (HT-29 [2]): 470 nM

SMILES: COc1cc2c(Oc3ccc(NC(=O)N/N=C/c4ccc(O)cc4)cc3F)ccnc2cc1OCCCN1CCCCC1
- IC50 [1]: 850 nM
- IC50 (A549): 780 nM
- IC50 (MDA-MB-231): 790 nM
- IC50 (HT-29 [2]): 470 nM

- AUC (Mus musculus [3]): 7340 ng·h/mL
- Cmax (Mus musculus [4]): 87 ng/mL
- MRT inf [5]: 24.3 h
- t1/2 (Mus musculus [6]): 13.48 h
- Vd/F [7]: 107 L/kg
- Tmax (Mus musculus [8]): 12 h
SMILES: COc1cc2c(Oc3ccc(NC(=S)N/N=C/c4ccccc4)cc3F)ccnc2cc1OCCCN1CCCCC1
- IC50 [1]: 710 nM
- IC50 (A549): 330 nM
- IC50 (PBL): 78400 nM
- IC50 (MDA-MB-231): 1200 nM
- IC50 (HT-29 [2]): 210 nM

SMILES: COc1cc2c(Oc3ccc(/C=N/NC(=O)Nc4ccccc4)cc3F)ccnc2cc1OCCCN1CCCCC1
- IC50 [1]: 180 nM
- IC50 (A549): 280 nM
- IC50 (PBL): 25500 nM
- IC50 (MDA-MB-231): 1200 nM
- IC50 (HT-29 [2]): 190 nM

SMILES: COc1cc2c(Oc3ccc(NC(=S)N/N=C/c4ccc(F)c(F)c4)cc3F)ccnc2cc1OCCCN1CCCCC1
- IC50 [1]: 740 nM
- IC50 (MDA-MB-231): 1400 nM
- IC50 (HT-29 [2]): 610 nM

SMILES: C=CCc1cccc(/C=N/NC(=O)CN2CCN(Cc3ccccc3)CC2)c1O [PAC-1]
- IC50 [1]: 820 nM
- IC50 (PBL): 124000 nM

SMILES: COc1cc2c(Oc3ccc(/C=N/NC(=O)Nc4ccc(F)c(F)c4)cc3F)ccnc2cc1OCCCN1CCCCC1
- IC50 [1]: 320 nM
- IC50 (MDA-MB-231): 960 nM
- IC50 (HT-29 [2]): 490 nM

SMILES: C=CCc1cccc(/C=N/NC(=O)Nc2ccc(Oc3ccnc4cc(OCCCN5CCCCC5)c(OC)cc34)c(F)c2)c1OC
- IC50 [1]: 670 nM
- IC50 (A549): 250 nM
- IC50 (MDA-MB-231): 790 nM
- IC50 (HT-29 [2]): 460 nM

SMILES: COc1cc2c(Oc3ccc(NC(=O)N/N=C/c4ccc([N+](=O)[O-])cc4)cc3F)ccnc2cc1OCCCN1CCC(C)CC1
- IC50 [1]: 420 nM
- IC50 (A549): 380 nM
- IC50 (MDA-MB-231): 870 nM
- IC50 (HT-29 [2]): 230 nM

SMILES: COc1cc2c(Oc3ccc(NC(=O)N/N=C/c4ccc(C(F)(F)F)cc4)cc3F)ccnc2cc1OCCCN1CCC(C)CC1
- IC50 [1]: 1000 nM
- IC50 (A549): 650 nM
- IC50 (MDA-MB-231): 1300 nM
- IC50 (HT-29 [2]): 740 nM

SMILES: COc1cc2c(Oc3ccc(NC(=S)N/N=C/c4ccc(F)cc4Cl)cc3F)ccnc2cc1OCCCN1CCCCC1
- IC50 [1]: 820 nM
- IC50 (A549): 230 nM
- IC50 (PBL): 34100 nM
- IC50 (MDA-MB-231): 1400 nM
- IC50 (HT-29 [2]): 420 nM

SMILES: COc1ccc(/C=N/NC(=O)Nc2ccc(Oc3ccnc4cc(OCCCN5CCOCC5)c(OC)cc34)c(F)c2)cc1
- IC50 [1]: 770 nM
- IC50 (PBL): 17200 nM
- IC50 (MDA-MB-231): 1900 nM
- IC50 (HT-29 [2]): 900 nM

SMILES: COc1cc2c(Oc3ccc(NC(=O)N/N=C/c4ccc(Cl)cc4Cl)cc3F)ccnc2cc1OCCCN1CCCCC1
- IC50 [1]: 460 nM
- IC50 (MDA-MB-231): 750 nM
- IC50 (HT-29 [2]): 370 nM

SMILES: COc1cc2c(Oc3ccc(NC(=O)N/N=C/c4ccc(C(F)(F)F)cc4)cc3F)ccnc2cc1OCCCN1CCCCC1
- IC50 [1]: 630 nM
- IC50 (A549): 660 nM
- IC50 (MDA-MB-231): 1100 nM
- IC50 (HT-29 [2]): 660 nM

SMILES: COc1cc2c(Oc3ccc(NC(=O)N/N=C/c4ccc([N+](=O)[O-])cc4)cc3F)ccnc2cc1OCCCN1CCOCC1
- IC50 [1]: 750 nM
- IC50 (MDA-MB-231): 1700 nM
- IC50 (HT-29 [2]): 710 nM

SMILES: COc1cc2c(Oc3ccc(NC(=O)N/N=C/c4ccc(OC(F)(F)F)cc4)cc3F)ccnc2cc1OCCCN1CCCCC1
- IC50 [1]: 630 nM
- IC50 (A549): 590 nM
- IC50 (MDA-MB-231): 820 nM
- IC50 (HT-29 [2]): 510 nM

SMILES: COc1cc2c(Oc3ccc(NC(=O)N/N=C/c4ccc(F)cc4Cl)cc3F)ccnc2cc1OCCCN1CCC(C)CC1
- IC50 [1]: 530 nM
- IC50 (A549): 190 nM
- IC50 (PBL): 79500 nM
- IC50 (MDA-MB-231): 1500 nM
- IC50 (HT-29 [2]): 440 nM

SMILES: COc1cc2c(Oc3ccc(NC(=O)N/N=C/c4cc5ccccc5[nH]4)cc3F)ccnc2cc1OCCCN1CCCCC1
- IC50 [1]: 830 nM
- IC50 (A549): 780 nM
- IC50 (MDA-MB-231): 980 nM
- IC50 (HT-29 [2]): 820 nM

SMILES: COc1cc2c(Oc3ccc(NC(=O)C4(C(=O)Nc5ccc(F)cc5)CC4)cc3F)ccnc2cc1OCCCN1CCOCC1 [FORETINIB]
- Activity (HT-29 [9]): 73.68%
- Activity (Mus musculus [10]): Non-toxic
- Activity [11]: 78.23%
- Activity (Mus musculus [12]): Non-toxic

SMILES: COc1ccc(/C=N/NC(=O)Nc2ccc(Oc3ccnc4cc(OCCCN5CCCCC5)c(OC)cc34)c(F)c2)cc1
- IC50 [1]: 660 nM
- IC50 (A549): 540 nM
- IC50 (PBL): 126000 nM
- IC50 (MDA-MB-231): 840 nM
- IC50 (HT-29 [2]): 590 nM

SMILES: COc1cc2c(Oc3ccc(NC(=O)N/N=C/c4ccc(N(C)C)cc4)cc3F)ccnc2cc1OCCCN1CCCCC1
- IC50 [1]: 870 nM
- IC50 (MDA-MB-231): 1400 nM
- IC50 (HT-29 [2]): 1000 nM

SMILES: COc1cc2c(Oc3ccc(NC(=O)N/N=C/c4ccc([N+](=O)[O-])cc4)cc3F)ccnc2cc1OCCCN1CCCC1
- IC50 [1]: 470 nM
- IC50 (A549): 460 nM
- IC50 (MDA-MB-231): 970 nM
- IC50 (HT-29 [2]): 310 nM

SMILES: COc1ccc(/C=N/NC(=O)Nc2ccc(Oc3ccnc4cc(OCCCN5CCC(C)CC5)c(OC)cc34)c(F)c2)cc1
- IC50 [1]: 470 nM
- IC50 (A549): 430 nM
- IC50 (PBL): 23000 nM
- IC50 (MDA-MB-231): 1000 nM
- IC50 (HT-29 [2]): 610 nM

SMILES: COc1cc2c(Oc3ccc(NC(=O)N/N=C/c4cccs4)cc3F)ccnc2cc1OCCCN1CCCCC1
- IC50 [1]: 740 nM
- IC50 (A549): 790 nM
- IC50 (PBL): 68700 nM
- IC50 (MDA-MB-231): 1260 nM
- IC50 (HT-29 [2]): 770 nM

- AUC (Mus musculus [3]): 1210 ng·h/mL
- Cmax (Mus musculus [4]): 73 ng/mL
- MRT inf [5]: 14.8 h
- t1/2 (Mus musculus [6]): 5.07 h
- Vd/F [7]: 346 L/kg
- Tmax (Mus musculus [8]): 7.33 h
SMILES: COc1cc2c(Oc3ccc(/C=N/NC(=O)Nc4ccc(F)cc4Br)cc3F)ccnc2cc1OCCCN1CCCCC1
- IC50 [1]: 140 nM
- IC50 (A549): 98 nM
- IC50 (PBL): 36400 nM
- IC50 (MDA-MB-231): 1000 nM
- IC50 (HT-29 [2]): 110 nM

SMILES: COc1ccc(/C=N/NC(=O)Nc2ccc(Oc3ccnc4cc(OCCCN5CCCCC5)c(OC)cc34)c(F)c2)c(OC)c1
- IC50 [1]: 1990 nM
- IC50 (A549): 1400 nM
- IC50 (HT-29 [2]): 1600 nM

Reference: ChEMBL document CHEMBL3763046 (Bioorg Med Chem, 2016)
